# Results published in patent US20090012018A1, “Inhibition of pancretic cancer cell growth” (priority 2004, published 2009).
# “Also recorded” adds a separate entry of the source.
# Experiments:
# [1] = test system: pancreatic adenocarcinoma cell lines; assay: Growth, BrdU incorporation and apoptosis of pancreatic cancer cell lines (results stated for the lines together); type: cell-based, human; settings: for pancreatic cancer cell growth or survival: drug treatment vs untreated control cells, NS-398 up to 25 μM, sodium salicylate up to 100 μM, sulindac sulfone up to 300 μM, FIG. 3B, 5B
# Experimental: (§1) The small chemical inhibitors were used at the following final concentrations: up to 250 μM for sulindac (Sigma), up to 300 μM for sulindac sulfone (Calbiochem or ICN), NS-398 up to 25 μM (Calbiochem), sodium salicylate up to 100 μM (Calbiochem). […] To test for drug sensitivity, the cells were plated in control medium or in medium containing the drug of interest for 2 to 5 days. The culture media was changed every 48 hrs. The images showing cell morphology were taken with a Nikon inverted microscope.
# (§2) Cells were pulsed with 10 μM BrdU for two hours and then harvested and fixed. BrdU incorporation was detected with a fluorescein isothiocyanate conjugated anti-BrdU antibody (BD Biosciences) and total DNA was stained with 7-AAD (BD Biosciences). FACS analysis was performed according to the BD Biosciences BrdU flow kit manual. Cells in S-phase were defined as the BrdU-positive cell population with a DNA content between 2N and 4N. According to the manual, apoptotic cells were defined as a subpopulation of G0/G1 cells with DNA content lower than the diploid amount (<2N).
# (§3) The cell lines were plated the day prior to transfection at a density of 8×10^4 cells/well in a 24-well plate. The luciferase reporter constructs used included: Top-Flash and Fop-Flash containing multimerized Tcf-Lef binding sites or nonfunctional sites, respectively; TK-Luc (Promega); and GliBS containing 8×Gli binding sites upstream of the TK minimal promoter (Sasaki et al., Development, 124:1313-1322, 1997). In different experiments, the reporter constructs were co-transfected with an expression vector containing a dominant-negative form of Lef1 or the endogenous Wnt inhibitor Icat. The dominant negative Lef1 (gift from S. Pleasure) was generated by cloning the 63 amino acid N-terminal deleted form of Lef1 into the pEF5 plasmid. This construct also contains an IRES-EGFP cassette. The cDNA coding for the Icat protein was cloned into pIRES2-EGFP (BD Biosciences Clontech). Transfections were performed using the Effectene transfection reagent […] according to the user's manual. A Renilla luciferase plasmid (Promega) was included to control for transfection efficiency. Transfected cells were cultured in medium containing serum. […] Cells were harvested 24 hrs after transfection, and luciferase activity was assayed using the Dual Luciferase kit (Promega), according to the user's manual.
# Small interfering RNA (siRNA) oligonucleotides against β-catenin containing two thymidine residues (dTdT) at the 3′ end of the sequence (5′-[…] […] T-3′ set forth as SEQ ID NO:57) were used for treatment of cancer cells as described (Verma et al., Clin Cancer Res, 9:1291-1300, 2003). The GLI1 siRNA (sense 5′-[…] […]-3′ set forth as SEQ ID NO:58) was also used as described (Sanchez et al., Proc Natl Acad Sci USA 101:12561-12566, 2004). Small interfering RNA against GLI2 was ordered against the target sequence 5-[…] […] A-3′, set forth as SEQ ID NO:59). […] Cells were transfected with oligofectamine (Invitrogen) according to the user's manual, with a final siRNA concentration of 100 or 300 nM. Transfected cells were incubated for 48 hrs before harvesting.
# [2] = test system: Wnt signaling (Top-Flash reporter); assay: Fop/Top-Flash luciferase reporter assay; type: cell-based, human; settings: for Top-Flash reporter activity (Wnt signaling): CFPAC-1, BxPC3, L3.6sl, Panc4.21, 24 hrs after transfection, sulindac 250 μM, sulindac sulfone 150 μM, cyclopamine 10 μM, or co-transfection
# Experimental: as §3
# For each Fop-luciferase or Top-luciferase experiment, a renilla luciferase construct was included. For each experimental condition (drug treatment, co-transfection or siRNA), triplicate Top- and Fop-luciferase samples were analyzed. To equilibrate the total vector-DNA (or siRNA) amount in all samples, equivalent amounts of an empty expression vector or unrelated siRNAs were transfected into control samples. The following equations were used to obtain the normalized luciferase values and the relative (fold) activation. The firefly luciferase (Fop and Top) values were divided by the renilla luciferase values to obtain the normalized luciferase values. The normalized Top values for each condition were divided by the Fop values of the same condition (e.g., untreated Top/untreated Fop; drug-treated Top/drug-treated Fop). […] To minimize the number of bars in each figure, only representative average Fop values are included in the graphs.
# Tcf4 = assay: Immunofluorescence of Tcf expression in pancreatic cancer cells; type: cell-based, human; settings: cyclopamine for 24 hrs (FIG. 4C) or sulindac-treated
# Tcf1 = assay: as above; type: cell-based, human; settings: pancreatic cancer cells (Panc4.21); cyclopamine for 24 hrs (FIG. 4C) or sulindac-treated
# Panc10.05 = assay: Sensitivity of pancreatic adenocarcinoma cells to drug treatment (cell proliferation, survival); type: cell-based, human; settings: Panc 10.05; FIG. 6
# Experimental: (§4) Human pancreatic adenocarcinoma cell lines HPAC, SW1990, Mpanc-96, SU86.86, PL45, Panc10.05 Panc2.03 and Panc8.13 were obtained from ATCC; cell lines MiaPaCa2, Panc1, CFPAC-1, HPAFII, Capan-2, AsPC1, Hs766T and BxPC3 were a gift from Schering Plough; cell lines COLO357, L3.3, L3.6 pl and L3.6 sl were a gift from I. Fidler; cell lines Panc3.27, Panc4.21, Panc5.04, Panc2.13, Panc1.28 and Panc6.03 were a gift from E. Jaffee. BxPC3 and the Panc cell lines were grown in RPMI medium (Gibco) supplemented with 10% FBS, L-glutamine and penicillin/streptomycin; medium for the Panc cells was also supplemented with insulin-transferrin-selenium (Gibco). The CFPAC-1, Panc1, AsPC1, Hs766T, L3.6sl and L3.6pl were grown in DMEM without phenol red (CellGro), supplemented with 10% FBS. Derivation and culture of PDC cells was as described (Schreiber et al., Gastroenterology, 127:250-260, 2004).
# as §1, §2
# Panc1.28 = assay: as above; type: cell-based, human; settings: FIG. 6
# Experimental: as §4, §1, §2
# [3] = test system: Hedgehog signaling (GliBS-luc reporter); assay: GliBS-luciferase reporter assay; type: cell-based, human; settings: BxPC3 cells; cyclopamine 10 μM
# Experimental: The cell lines were plated the day prior to transfection at a density of 8×10^4 cells/well in a 24-well plate. The luciferase reporter constructs used included: Top-Flash and Fop-Flash containing multimerized Tcf-Lef binding sites or nonfunctional sites, respectively; TK-Luc (Promega); and GliBS containing 8×Gli binding sites upstream of the TK minimal promoter (Sasaki et al., Development, 124:1313-1322, 1997). In different experiments, the reporter constructs were co-transfected with an expression vector containing a dominant-negative form of Lef1 or the endogenous Wnt inhibitor Icat. The dominant negative Lef1 (gift from S. Pleasure) was generated by cloning the 63 amino acid N-terminal deleted form of Lef1 into the pEF5 plasmid. This construct also contains an IRES-EGFP cassette. The cDNA coding for the Icat protein was cloned into pIRES2-EGFP (BD Biosciences Clontech). Transfections were performed using the Effectene transfection reagent […] according to the user's manual. A Renilla luciferase plasmid (Promega) was included to control for transfection efficiency. Transfected cells were cultured in medium containing serum. […] Cells were harvested 24 hrs after transfection, and luciferase activity was assayed using the Dual Luciferase kit (Promega), according to the user's manual. […]
# BxPC3 tumors = assay: Subcutaneous tumor treatment in nude mice; type: in vivo, CD-1 nude mice
# Experimental: (§5) A total of 0.1 ml Hanks' balanced salt solution and matrigel (1:1) containing 2×10^6 cells was injected subcutaneously into CD-1 nude mice (Charles River Laboratories). Tumors were grown for 4 days to a minimum volume of 125 mm^3. Treatment was initiated simultaneously for all subjects. Mice were injected with vector alone (peanut oil: PBS 7:3 v/v) or with a sulindac solution (3 mg/mouse/day) daily for 5 days. Sulindac sulfone was administered orally (1.5 mg/mouse/day). At the end of the treatment period, tumors were excised from mice, weighed and photographed.
# CFPAC-1 tumors = assay: Subcutaneous tumor treatment in nude mice; type: in vivo, CD-1 nude mice; settings: treated for five days vs controls, sulindac 3 mg/mouse/day injected, sulindac sulfone 1.5 mg/mouse/day orally
# Experimental: as §5
# Solubility = type: physicochemical; settings: required oral application
# L3.6sl tumors = assay: Subcutaneous tumor treatment in nude mice; type: in vivo, CD-1 nude mice
# Experimental: as §5
# Individual or combined treatment was initiated after tumors were palpable.
# L3.6sl = assay: Sensitivity of pancreatic adenocarcinoma cells to drug treatment (cell proliferation, apoptosis); type: cell-based, human; settings: vs untreated controls, FIG. 3B
# Experimental: as §4, §1, §2
# Panc4.21 = assay: as above; type: cell-based, human; settings: vs untreated controls, FIG. 3B
# Experimental: as §4, §1, §2
# BxPC3 = assay: as above; type: cell-based, human; settings: vs untreated controls, FIG. 3B
# Experimental: as §4, §1, §2
# CFPAC-1 = assay: as above; type: cell-based, human; settings: CFPAC-1 (CFPAC); vs untreated controls; FIG. 3B, 5
# Experimental: The culture media was changed every 48 hrs.
# as §2
# [4] = sulindac sulfone orally 1.5 mg/mouse/day, five days
# [5] = treated for five days vs untreated controls, sulindac 3 mg/mouse/day injected, sulindac sulfone 1.5 mg/mouse/day orally
molecule,measurement,setting,value
CS(=O)(=O)Nc1ccc([N+](=O)[O-])cc1OC1CCCCC1 [NS-398],pancreatic cancer cell growth or survival,[1],Neither NS-398 (blocks COX-2 activity) nor salicylate (blocks COX-2 transcription) showed any measurable effect
same,pancreatic cancer cell growth or survival,[1]; listed as NS398,comparable growth to untreated control cells
"CC1=C2C[C@H]3[C@@H](CC=C4C[C@@H](O)CC[C@@]43C)[C@@H]2CC[C@]12O[C@@H]1C[C@H](C)CN[C@H]1[C@H]2C [cyclopamine, 11-deoxojervine]",reduction of Wnt signaling,"[2]; BxPC3 cells, cyclopamine 10 μM",~23%
same,Tcf4 expression,Tcf4,efficiently abolished
same,Tcf4 expression,Tcf4; listed as Cyclopamine,inhibits Tcf4 and Tcf1 expression
same,Tcf1 expression,Tcf1,inhibits Tcf4 and Tcf1 expression; also recorded: reduce expression
same,sensitivity / survival (phase contrast images),Panc10.05,not sensitive
same,sensitivity / survival (phase contrast images),Panc1.28,not sensitive
same,reduction of Hedgehog signaling,[3],17%
O=C([O-])c1ccccc1O.[Na+] [sodium salicylate],pancreatic cancer cell growth or survival,[1],comparable growth to untreated control cells
same,pancreatic cancer cell growth or survival,[1]; listed as salicylate,Neither NS-398 (blocks COX-2 activity) nor salicylate (blocks COX-2 transcription) showed any measurable effect
CC1=C(CC(=O)O)c2cc(F)ccc2/C1=C\c1ccc(S(C)(=O)=O)cc1 [sulindac sulfone],Top-Flash reporter activity (Wnt signaling),[2],inhibit Wnt activity; also recorded: generally more effective than sulindac in blocking Wnt signaling
same,Top-Flash reporter activity (Wnt signaling),[2]; listed as Sulindac sulfone,blocked Wnt signaling
same,reduction of tumor mass,BxPC3 tumors; [4],60%
same,tumor growth,BxPC3 tumors; [5],reduced
same,"tumor growth (volume, size)",CFPAC-1 tumors,largely unaffected
same,solubility,Solubility,limited solubility
same,sensitivity / survival (phase contrast images),Panc10.05,not sensitive
same,sensitivity / survival (phase contrast images),Panc1.28,not sensitive
same,reduction of tumor mass,L3.6sl tumors; [4],50%
same,tumor growth,L3.6sl tumors; [5],reduced
same,cell growth,L3.6sl,strongly inhibits growth
same,cell growth,Panc4.21,strongly inhibits growth
same,cell growth,BxPC3,strongly inhibits growth
same,"cell growth (proliferation, apoptosis)",CFPAC-1,only mildly affected; also recorded: diminishes growth
same,cell proliferation as measured by BrdU incorporation,"[1]; 75 μM sulindac sulfone, 5 μM cyclopamine or both, FIG. 4H",inhibits cell proliferation
same,pancreatic cancer cell growth or survival,[1],blocked Wnt signaling and cell survival
ICAT: endogenous Wnt inhibitor; cDNA cloned into pIRES2-EGFP expression vector and transfected,Top-Flash reporter activity (Wnt signaling),[2],reduction of Top-Flash activity
same,cell proliferation (BrdU incorporation) after transfection,"[1]; four pancreatic cancer cell lines, 48 hours after transfection, siRNA 100 nM or 300 nM, FIG. 2C, 2D",strongly inhibits growth; also recorded: significantly reduced
